Legend:
[1] = Lung and liver curcumin levels after subcutaneous implantation of curcumin matrices; assay type: in vivo, Sprague-Dawley rats
[2] = In vitro release of curcumin from device for cervical insertion; assay type: physicochemical; settings: after approximately 5 days in release medium; 18 days release period
Description: The medium was replaced daily and the amount of curcumin released from the compositions per day was measured spectrophotometrically against a standard curve and expressed as micrograms per day.

[3] = In vitro release of curcumin from PCL-121K:PEG-8K (65:35) implants; assay type: physicochemical
Description: Both solutions were then mixed together to prepare a homogenous solution of drug and polymers. The solvents were evaporated on a water bath maintained at 65° C. followed by overnight drying under vacuum at 65° C. to remove residual solvents to prepare an amorphous molecular dispersion of drug in polymer. The dried molten polymer was then extruded through silastic tubing mold (internal diameter 3.4 mm) attached to a syringe. After a few minutes, the cylindrical implants were removed from the tubing and excised into desired lengths (2.0 cm, 200 mg containing 40 mg drug) and stored at −20° C. under argon until used.
PBS was supplemented with BCS (10% v/v) to mimic extracellular fluid composition and to simulate the in vivo situation. Amber-colored vials (n=3) containing a 2-cm implant each were incubated at 37±0.5° C. in a reciprocating (150 rpm) shaker water bath (Julabo S W23, Seelbach, Germany), and the release medium was changed after every 24 h.

[4] = In vivo release of curcumin from PCL-121K:PEG-8K implants (residual content); set-up: species or system ACI rats
Excerpt: The in vivo cumulative release was studied in female Augustus Copenhagen Irish (ACI) rats following an approved protocol from an Institutional Animal Care and Use Committee (IACUC). […] All the animals were provided food and water ad libitum. Sham and curcumin implants were subcutaneously grafted at the back of the rats and were monitored for their diet intake and body weight. Animals were euthanized at different time intervals by asphyxiation to collect blood, liver, brain, local tissues and implants. All the tissues were snap frozen in liquid nitrogen and stored at −80° C. until further analysis.
Initial and residual curcumin content in the implants was also analyzed to determine the cumulative drug release. Implants recovered from animals were dissolved in 5 ml dichloromethane. […] The solution was then diluted suitably (400-fold) with ethanol.
where T1, T2, T3, . . . Tn are different time intervals.

[5] = tested on: GSTM; assay: GSTM levels in hepatic microsomes (Western blotting); assay type: in vivo, ACI rats; settings: implant and dietary routes
Description: (§1) To evaluate the xenobiotic-metabolizing enzymes, liver samples from the animals (approximately 100 mg) were homogenized in 0.25 M sucrose buffer (pH 7.4) at 3000 rpm with Polytron. The homogenate was centrifuged at 3000 g for 20 min at 4° C. to separate the nuclear content, and the supernatant was then collected and again centrifuged at 11,000 g for 20 min at 4° C. to separate the mitochondria. The post-mitochondrial supernatant was then transferred to ultracentrifuge tubes and finally centrifuged at 100,000 g for 1 h at 4° C. to separate the microsomes. The pellet was suspended in 1 ml sucrose buffer, aliquoted and stored at −80° C. until use.
Microsomal proteins were subsequently quantified using a bicinchoninic acid (BCA) method and a BCA™ Protein Assay kit (Thermo Scientific, Rockford, Ill.) and were resolved by sodium dodecyl sulfatepolyacrylamide gel electrophoresis (SDS-PAGE) on a 10% gel. Protein bands were then transferred to polyvinylidene diflouride (PVDF) membrane, which was incubated with 5% non-fat dried milk in Tris-buffered-saline for 1 h at room temperature (25° C.) to block the non-specific binding sites. […] The bands were detected by enhanced chemiluminescence using Pierce® ECL Western-Blotting Substrate (Thermo Scientific, Rockford, Ill.) and quantified using VersaDoc Imaging System (BioRad Laboratories, Hercules, Calif.).

[6] = tested on: CYP3A4; assay: CYP3A4 activity in hepatic microsomes; assay type: in vivo, ACI rats
Description: as §1

[7] = Safety and biocompatibility of curcumin implants; assay type: in vivo; settings: curcumin doses administered by the implants; at least 3 months
Excerpt: As such, the further study was designed in continuation to above-described experiments (i) to analyze the in vivo release from these implants, (ii) to compare the tissue distribution of curcumin delivered via these implants with curcumin delivered via diet, and finally (iii) to compare the efficacy of curcumin delivered via both routes.

[8] = mouse, sc
Description: (§2) To assess the coated implants (i.e., where the compositions were in the form of coatings), in vivo studies were also performed. […] All groups of animals were also treated with dibenzo[a,I]pyrene (DBP) via polymeric implants (1-cm, 1.4 mm dia, 5% DBP load) at the same time. Implants were grafted subcutaneously, and animal were euthanized after 3 weeks. […] In both cases, animals were euthanized by CO2 asphyxiation and selected tissues (lung, liver and brain) were collected and stored at −80° C. until processing. Implants were also recovered, dried under vacuum and stored in amber vials under argon at 4° C. until analysis.
The supernatants were diluted with ethanol:DCM (80:20) and their concentrations were measured spectrophotometrically at maximal absorbance and the concentrations were calculated against standard curves of individual compounds.

[9] = tested on: DBP-DNA adducts; assay: Dibenzo[a,I]pyrene (DBP)-DNA adducts in lung (32P-postlabeling); assay type: in vivo, A/J mice; settings: two 1.5 cm coated implants; DBP implant; 3 weeks
Description: as §2
To analyze the formation of DNA adducts, DNA was isolated from lung tissue (200 mg) by treatment of the isolated crude nuclei with RNases and proteinase K, followed by extractions with phenol, phenol:Sevag and Sevag. DNA was recovered by ethanol precipitation and its concentration was measured spectrophotometrically considering 1 A260 equals 50 μg DNA. DNA adducts were analyzed by nuclease P1-mediated ^32P-postlabeling/TLC assay and expressed as adducts per 10^9 nucleotides.

[10] = tested on: B[a]P-induced DNA adducts
[11] = curcumin implants, B[a]P implant 1 cm, 10 mg, 30 days post B[a]P
[12] = curcumin implants, sustained low dose B[a]P, 30 days

concentration at 4 days ([1]; Sprague-Dawley, rat, liver, subcutaneous, 20 % w/w curcumin in two 2-cm polymeric matrices, implants 20% w/w, 4 days): ~40 ng/g
concentration at 7 days ([1]; Sprague-Dawley, rat, liver, subcutaneous, 20 % w/w curcumin in two 2-cm polymeric matrices, implants 20% w/w, 7 days): ~5 ng/g
concentration at 4 days ([1]; Sprague-Dawley, rat, lung, sc, 20 % w/w curcumin in two 2-cm polymeric matrices): ~15 ng/g
curcumin level in lung tissue ([1]; implants 20% w/w, after 7 days, maintained at 13 and 21 days): approximately 5 ng/g
curcumin level in liver tissue ([1]; implants 20% w/w, during the next 30 days): about 2.5 ng/g
curcumin release after 1 week [3]: approximately 200 μg/day
curcumin release after 31 days [3]: approximately 120 μg/day
curcumin release on day 2 [3]: approximately 390 μg
cumulative release after 1 month ([3]; 40 mg per implant): approximately 15 % of total agent load
curcumin release on day 1 ([3]; 2-cm implant, 40 mg): approximately 570 μg
in vivo burst release on day 1 ([4]; 2-cm implant, 40 mg, s.c.): approximately 1800 μg
curcumin released after 1 day of implantation ([4]; from weight loss studies): 1.8 mg
curcumin delivered by both the implants combined ([4]; over 90 days, versus around 900 mg by diet): 38 mg
cumulative in vivo release after 1 month ([4]; rat, in vivo): approximately 30%
in vivo drug release after 3 months ([4]; rat, in vivo): approximately 130 μg/day
in vivo drug release over a period of 1 month ([4]; rat, in vivo): 300 to 350 µg/day
in vivo release on day 4 ([4]; rat, in vivo): approximately 380 μg
total release in vivo at the end of 3 weeks [8]: 19.9%
SMILES: COc1cc(/C=C/C(=O)CC(=O)/C=C/c2ccc(O)c(OC)c2)ccc1O [curcumin]
amount of curcumin released per day from device [2]: decreased and approached lower steady-state levels
GSTM levels [5]: not found to get modulated
CYP3A4 activity ([6]; curcumin diet, 12 days): reduced to basal levels
CYP3A4 activity compared to untreated animals ([6]; curcumin diet, after 4 days): significant higher
CYP3A4 activity ([6]; curcumin diet, day 1): slightly higher activity
increase in CYP3A4 activity compared with sham implants ([6]; curcumin implants): became significant only after 25 days
CYP3A4 activity ([6]; curcumin implants, after 3 months): remained consistently upregualated
liver and kidney function [7]: did not induce any biochemical changes in liver and kidney function
lung DBP-DNA adduct levels [9]: virtually no effect
B[a]P-induced DNA adducts in liver and lung versus sham implant ([10]; 1 cm matrix 20% w/w curcumin, B[a]P implant, 30 days): inhibited the B[a]P-induced DNA adducts in both the liver and lung
inhibition of adducts, liver [10, 11]: 83%
inhibition of adducts, lung [10, 11]: 65%
DNA adduct level, liver [10, 12]: 4±0.7 adducts/10^9 nucleotides
DNA adduct level, lung [10, 12]: 9±5 adducts/10^9 nucleotides

— patent US8858995B2, “Methods and compositions for controlled delivery of phytochemical agents” (priority 2008, dated 2014)
